According to US7070983B2, “Mutant Pseudomonas putida strains and methods of use thereof” (priority 2003, dated 2006):

What was measured:
[1] = test system: P. putida wild-type KH146-2; format: cell-based, Pseudomonas putida; conditions: LBH medium, 30° C., 3 days
Protocol: (§1) Pseudomonas putida KH146-2 was originally isolated from soil for the capability of growing in the presence of 4-hydroxybenzoate (Chen et al., ((1998) Res Communs Biochem and Cell & Mol Biol 2: 253–274)). HBM medium consists of 50 mM sodium potassium phosphate buffer (pH6.8), 0.1% (NH4)2SO4 and Hutner's base. Hutner's base cotained (per liter) nitrilotriacetic acid, 200 mg; CaCl2.2H2O, 67 mg; (NH4)6Mo7O24.4H2O, 185 μg; MgSO4, 289 mg; EDTA, 2.5 mg; ZnSO4.7H2O, 11 mg; FeSO4.7H2O, 7 mg; MnSO4.H2O, 1.5 mg; CuSO4.5H2O, 390 μg; Co(NO3)2.6H2O, 250 μg, and Na2B4O7.10H2O, 180 μg. LB medium contains 1% tryptone, 0.5% yeast extract, and 1% NaCl (adjusted pH 6.8). LBH medium contains 1% tryptone and 0.5% yeast extract in HBM medium. The bacteria were grown at 30° C. in a shaker at 200 rpm. For tolerance tests, HBM or LBH agar plates containing serially increasing concentrations of an organic chemical were employed. Routinely, 20 to 40 bacterial strains were spot-transplanted with the aid of tooth pick on an agar plate, followed by incubation at 30° C. for 3 days.

[2] = test system: P. putida strain no. 12 (Gen mutant); test: Tolerance test (MIC) on agar plates; format: cell-based, Pseudomonas putida
Protocol: as §1

[3] = test system: P. putida strain no. 14 (Rif mutant); test: Tolerance test (MIC) on agar plates; format: cell-based, Pseudomonas putida
Protocol: as §1

[4] = test system: P. putida strain no. 15 (Rif mutant); test: Tolerance test (MIC) on agar plates; format: cell-based, Pseudomonas putida
Protocol: as §1

[5] = test system: P. putida strain no. 17 (Rif mutant); test: Tolerance test (MIC) on agar plates; format: cell-based, Pseudomonas putida
Protocol: as §1

[6] = test system: P. putida strain no. 18 (Rif mutant); test: Tolerance test (MIC) on agar plates; format: cell-based, Pseudomonas putida; conditions: LBH medium
Protocol: as §1

[7] = test system: P. putida strain no. 20 (Rif mutant); test: Tolerance test (MIC) on agar plates; format: cell-based, Pseudomonas putida; conditions: LBH medium
Protocol: as §1

[8] = test system: P. putida strain no. 3 (Str mutant); test: Tolerance test (MIC) on agar plates; format: cell-based, Pseudomonas putida
Protocol: as §1

[9] = test system: P. putida strain no. 9 (Str mutant); test: Tolerance test (MIC) on agar plates; format: cell-based, Pseudomonas putida
Protocol: as §1

[10] = test system: 4HBA-tolerant Str, Gen and Rif mutants of P. putida KH146-2; format: cell-based, Pseudomonas putida; conditions: the mutants; 4HBA as the sole carbon source
Protocol: as §1
Using several strains randomly chosen as representatives of 4HBA-tolerant mutants, we examined the tolerance level to various organic compounds. […] Tolerance levels to other organic compounds were also examined.

[11] = test system: strain no. 3 carrying plasmid pYI433 containing the wild-type rpsL gene; test: Complementation experiment, 4HBA-tolerance; format: cell-based, Pseudomonas putida; conditions: strain no. 3 with plasmid containing the rpsL gene
Excerpt: (§2) To clone the rpsL gene, a 0.9-kb DNA region covering whole rpsL was amplified from the chromosomal DNA of P. putida KH146-2 using KDO DNA polymerase (Toyobo Biochemicals, Osaka). Oligonucleotide primers were designed according to the rpoC-rpsL-rpsG sequence of P. putida KT2440 (www.tigr.org); 5′-[…]-3′ (SEQ ID NO:7—nucleotides [nt]−368 to −341 upstream of rpsL) and 5′-[…]-3′ (SEQ ID NO:8—complementary to nt 107 to 135 downstream of rpsL). The amplified DNA fragments were cloned into plasmid pUC118 (Vieira and Messing, (1987) Methods Enzymol 153: 3–11) to confirm the sequence, then excised from the plasmids as a BamHI-SphI fragment using the restriction sites in the multi-cloning sequence of the vector and inserted between the BglII and SphI sites of the E. coli-Pseudomonas shuttle vector pNIT6010 carrying tet^R, a derivative of pNIT6011 (Nishijyo et al. (2001) Mol Microbiol 40:917–931). The resultant plasmid pYI433, as well as vector control pNIT6010, was introduced into the Str mutant no. 3 (str-1) by conjugation using E. coli HB101/pRK2013 as the helper (Comai et al. (1983) Plasmid 10:21–30). Fifty μg ml^−1 of tetracycline was used for selection of transformants.
(§3) […]

[12] = test system: strain no. 3 harbouring a plasmid without rpsL; test: Complementation experiment, 4HBA-tolerance; format: cell-based, Pseudomonas putida
Excerpt: as §2, §3

[13] = test system: Strain no. 55 (Str Gen double mutant); test: 4HBA tolerance after growth on LB without 4HBA; format: cell-based, Pseudomonas putida; conditions: strains grown once on LB medium without 4HBA
[14] = test system: 4HBA-adapted mutants of wild-type strain KH146-2; test: 4HBA tolerance by sequential adaptation; format: cell-based, Pseudomonas putida; conditions: mutants obtained by step by step adaptation
Protocol: Wild-type strain KH146-2 was adapted, step by step, to grow in HBM medium containing increasing concentrations (from 0.8% to 5%) of 4HBA. In steps using high concentrations (>3%) of 4HBA, adaptation required a longer term incubation (7˜10 days) for each step. In certain steps, the 4HBA-adapted mutants were isolated using agar plates (containing the adapted concentrations of 4HBA), on which tolerant mutants formed big size colonies.

[15] = test system: Rif mutant no. 17; conditions: read-out: apparent Km of 4HBA uptake, 50 to 500 μM 4HBA
Protocol: (§4) The method described by Thanassi et al. ((1995) J Bacteriol 177:998–1007) was used with some modifications. The bacteria were grown to mid-log phase in HBM medium containing 0.3% 4HBA, washed and resuspended in 0.3% succinate-HBM medium to give OD660=0.7. A 5 ml-aliquot of the bacterial suspension in a 100 ml flask was incubated in a shaker bath. A 0.5 μCi [carboxyl-^14C]4HBA (55 mCi mmol^−1, ARC.) with unlabelled 4HBA at increasing concentrations, were added to the 5 ml bacterial suspension and incubation was continued. At the indicated time, a 0.5 ml aliquot of sample was removed and filtered using a nitrocellulose filter (0.45 μm pore size, Millipore Corp, Bedford, Mass.) which had previously been washed with 2 ml of HBM medium containing 5 mM 4HBA. The sample was applied with a Pipetman, followed by immediate washing with 3 ml of 5 mM 4HBA-HBM medium. The membrane filter was dried, and transferred to a scintillation vial containing Brey's solution, and radioactivity was measured in scintillation spectrometer. From the rate of uptake and the concentration of 4HBA, apparent Km was determined by reciprocal plotting as described by Beman et al ((1983) J Bacteriol 156:1107–1117).
(§5) Therefore, we first grew cells to mid-log phase in HBM medium containing 0.3% 4HBA and succinate, washed, and resuspended in HBM medium containing only succinate. [^14C]4HBA was then added with unlabeled 4HBA at various (50 to 500 μM) concentrations.

[16] = test system: Str mutant no. 3; conditions: read-out: apparent Km of 4HBA uptake, 50 to 500 μM 4HBA
Protocol: as §4, §5

[17] = test system: wild-type KH146-2; conditions: read-out: apparent Km of 4HBA uptake; wild-type strain; 50 to 500 μM 4HBA
Protocol: as §4, §5

[18] = test system: Str Gen double mutant no. 55; test: Uptake of [14C]4HBA; format: cell-based, Pseudomonas putida; conditions: [14C]4HBA at 100 μM, FIG. 3
Protocol: as §4
(§6) Therefore, we first grew cells to mid-log phase in HBM medium containing 0.3% 4HBA and succinate, washed, and resuspended in HBM medium containing only succinate. […]

[19] = test system: Str and Rif mutants; format: cell-based, Pseudomonas putida
Protocol: as §4, §6

[20] = test system: wild-type and mutant strains; test: Determination of protein synthesis ([14C]leucine incorporation); format: cell-based, Pseudomonas putida; conditions: absence or presence (0.6 or 1.2%) of 4HBA; data not shown
[21] = test system: parental strain KH146-2; test: Antibiotic growth suppression on LB agar; format: cell-based, Pseudomonas putida
Excerpt: (§7) Spontaneous streptomycin-resistant (Str), gentamicin-resistant (Gen) or rifampicin-resistant (Rif) mutants were obtained from colonies that grew within 3 days after wild-type cells were spread on LB agar containing various concentrations of antibiotic.
We first isolated a number of spontaneous streptomycin-resistant (Str), gentamicin-resistant (Gen) and rifampicin-resistant (Rif) mutants of P. putida KH146-2. These mutants appeared at a frequency of 10^−5–10^−6 when KH146-2 cells were spread on LB agar containing various amounts of antibiotics. […] Forty mutants resistant to each antibiotic were randomly selected and examined for tolerance to 4-hydroxybenzoic acid (4HBA). 4HBA-tolerant strains, which could grow in the presence of 1% 4HBA, were detected among these antibiotic resistant mutants at a high frequency of 3 to 15% (Table 1). The highest frequency (15%) was detected in the mutants selected with 1000 μg ml^−1 of streptomycin. These 4HBA-tolerant isolates all grew as well as the parent strain on LB agar.

[22] = test system: P. putida strain no. 11 (gen); test: Resistance level to antibiotic on LB agar; format: cell-based, Pseudomonas putida; conditions: 1 days on LB agar
Excerpt: as §7

[23] = test system: P. putida strain no. 12 (gen); test: Resistance level to antibiotic on LB agar; format: cell-based, Pseudomonas putida; conditions: 1 days on LB agar
Excerpt: as §7

[24] = test system: P. putida strain no. 13 (gen); test: Resistance level to antibiotic on LB agar; format: cell-based, Pseudomonas putida; conditions: 1 days on LB agar
Excerpt: as §7

[25] = test system: P. putida strain no. 14 (rif-1); test: Resistance level to antibiotic on LB agar; format: cell-based, Pseudomonas putida; conditions: 1 days on LB agar
Excerpt: as §7

[26] = test system: P. putida strain no. 15 (rif-2); test: Resistance level to antibiotic on LB agar; format: cell-based, Pseudomonas putida; conditions: 1 days on LB agar
Excerpt: as §7

[27] = test system: P. putida strain no. 17 (rif-3); test: Resistance level to antibiotic on LB agar; format: cell-based, Pseudomonas putida; conditions: 1 days on LB agar
Excerpt: as §7

[28] = test system: P. putida strain no. 18 (rif-4); test: Resistance level to antibiotic on LB agar; format: cell-based, Pseudomonas putida; conditions: 1 days on LB agar
Excerpt: as §7

[29] = test system: P. putida strain no. 19 (rif-5); test: Resistance level to antibiotic on LB agar; format: cell-based, Pseudomonas putida; conditions: 1 days on LB agar
Excerpt: as §7

[30] = test system: P. putida strain no. 20 (rif-5); test: Resistance level to antibiotic on LB agar; format: cell-based, Pseudomonas putida; conditions: 1 days on LB agar
Excerpt: as §7

[31] = test system: P. putida strain no. 21 (rif-3); test: Resistance level to antibiotic on LB agar; format: cell-based, Pseudomonas putida; conditions: 1 days on LB agar
Excerpt: as §7

[32] = test system: P. putida strain no. 22 (rif-3); test: Resistance level to antibiotic on LB agar; format: cell-based, Pseudomonas putida; conditions: 1 days on LB agar
Excerpt: as §7

[33] = test system: P. putida strain no. 23 (rif-4); test: Resistance level to antibiotic on LB agar; format: cell-based, Pseudomonas putida; conditions: 1 days on LB agar
Excerpt: as §7

[34] = test system: P. putida strain no. 24 (rif-4); test: Resistance level to antibiotic on LB agar; format: cell-based, Pseudomonas putida; conditions: 1 days on LB agar
Excerpt: as §7

[35] = HBM medium, 4HBA as a sole carbon source

O=C(O)c1ccc(O)cc1 [4HBA, 4-hydroxybenzoate]
Tolerance (MIC) [1]: 1.4 ± 0.1% | Tolerance (MIC) [2, 35]: (1.6 ± 0.2) % | Tolerance (MIC) ([2]; LBH medium): 1.9 ± 0.3% | Tolerance (MIC) [3, 35]: (1.4 ± 0.2) % | Tolerance (MIC) ([3]; LBH medium): 1.8 ± 0.2% | Tolerance (MIC) [4, 35]: (1.2 ± 0.2) % | Tolerance (MIC) ([4]; LBH medium): 1.8 ± 0.2% | Tolerance (MIC) [5, 35]: (1.3 ± 0.1) % | Tolerance (MIC) ([5]; LBH medium): 1.8 ± 0.2% | Tolerance (MIC) [6]: 2.0 ± 0.2% | Tolerance (MIC) [7]: 1.9 ± 0.1% | Tolerance (MIC) [8, 35]: (1.7 ± 0.1) % | Tolerance (MIC) ([8]; LBH medium): 1.9 ± 0.1% | Tolerance (MIC) [9, 35]: (1.3 ± 0.2) % | Tolerance (MIC) ([9]; LBH medium): 1.6 ± 0.2% | minimum inhibitory concentration (MIC) [10]: 1.7% | 4HBA-tolerance [11]: 1% | 4HBA-tolerance [12]: 1.6% | Tolerance to 4HBA ([13]; 3% 4HBA): still showed a tolerance | Growth on 4HBA-containing medium ([13]; 5% 4HBA): no longer grew | 4HBA concentration tolerated [14]: up to 5% | Km [15]: 620 µM | Km [16]: 470 µM | Km [17]: 240 µM | uptake of 4HBA [18]: reduced uptake | Km values greater than wild-type ([19]; Str and Rif mutants vs wild-type): 2 to 3 fold | apparent uptake by the membrane transport system, reduction compared to wild-type ([19]; the mutants vs wild-type strain): 2 to 3 fold | degree of suppression of protein synthesis, wild-type vs mutant strains [20]: no difference

gentamicin
Concentration completely suppressing growth [21]: 12 µg/mL | Resistance level to antibiotic [22]: 50 (GEN) μg ml^−1 | Resistance level to antibiotic [23]: 50 (GEN) μg ml^−1 | Resistance level to antibiotic [24]: 50 (GEN) μg ml^−1

CO[C@H]1/C=C/O[C@@]2(C)Oc3c(C)c(O)c4c(O)c(c(/C=N/N5CCN(C)CC5)c(O)c4c3C2=O)NC(=O)/C(C)=C\C=C\[C@H](C)[C@H](O)[C@@H](C)[C@@H](O)[C@@H](C)[C@H](OC(C)=O)[C@@H]1C [rifampicin]
Concentration completely suppressing growth [21]: 10 µg/mL | Resistance level to antibiotic [25]: >500 (RIF) μg ml^−1 | Resistance level to antibiotic [26]: >500 (RIF) μg ml^−1 | Resistance level to antibiotic [27]: 500 (RIF) μg ml^−1 | Resistance level to antibiotic [28]: 500 (RIF) μg ml^−1 | Resistance level to antibiotic [29]: 500 (RIF) μg ml^−1 | Resistance level to antibiotic [30]: 500 (RIF) μg ml^−1 | Resistance level to antibiotic [31]: 500 (RIF) μg ml^−1 | Resistance level to antibiotic [32]: 500 (RIF) μg ml^−1 | Resistance level to antibiotic [33]: 500 (RIF) μg ml^−1 | Resistance level to antibiotic [34]: 500 (RIF) μg ml^−1
